Results published in patent publication US20230103330A1, “MECHANISTIC BIOMARKER FOR PREDICTING THE SURVIVAL OF PANCREATIC CANCER PATIENTS” (The Regents of the University of California, priority 2020, published 2023).

Legend:
[1] = target: T1, PKCβII deleted pseudosubstrate (Rattus norvegicus, UniProt P68403, DEL19-36); assay: Immunoblot of PKC priming phosphorylations after phosphatase inhibitor; format: cell-based; conditions: COS-7 cells, 20 minutes prior to lysis
T1 construct: expressed in transfected cells; host or cells: COS-7
Description: FIG. 8. PKC APS Phosphorylation Is Not Regulated by a Calyculin-Sensitive Phosphatase. Western blot of lysates from COS-7 cells expressing RFP-tagged PKCβII wild-type (WT) or deleted pseudosubstrate (APS) and treated with DMSO (−) or Calyculin A (Cal, 100pM) and Go6976 (6pM) for 20 minutes prior to lysis. Immunoblots were probed with PKC phospho-specific antibodies against the activation loop (pThr^500), turn motif (pThr” ^1), or hydrophobic motif ([…]), total overexpressed PKC (HA), or phospho-serine substrate (pSer) as a positive control for Calyculin A.
Cells were lysed in PPHB: 50 mM NaPO4 (pH 7.5), 1% Triton X-100, 20 mM NaF, 1 mM Na4P207, 100 mM NaCl, 2 mM EDTA, 2 mM EGTA, 1 mM Na3VO4, 1 mM PMSF, […] leupeptin, 1 mM DTT, and […]. Phlpp1+/+ and Ph/pp1-/−MEFs were lysed in 50 mM Tris (pH 7.4), 1% Triton X-100, 50 mM NaF, 10 mM Na4P207, 100 mM NaCl, 5 mM EDTA, 1 mM Na3VO4, 1 mM PMSF, […] leupeptin, and […]. Triton-soluble fractions were analyzed by SDS-PAGE on 7% big gels to observe phosphorylation shift, transfer to PVDF membrane (Biorad), and western blotting via chemiluminescence SuperSignal West reagent (Thermo Fisher) on a FluorChem Q imaging system (ProteinSimple). In western blots, the asterisk (*) denotes the position of mature, phosphorylated PKC; whereas, the dash (−) indicates the position of unphosphorylated PKC. […]

[2] = target: WT PKCβII (Rattus norvegicus, UniProt P68403); conditions: COS7 cells, PDBu 200 nM
Description: (§1) For activity experiments COS7 cells were co-transfected with the indicated mCherry-tagged PKC construct and CKAR. For Kinameleon experiments, the indicated Kinameleon construct containing mYFP and mCFP was transfected alone. For translocation experiments, COS7 cells were co-transfected with the indicated mYFPtagged construct and plasma-membrane targeted mCFP at a ratio of 10:1. Baseline images were acquired every 15 s for 2 min prior to ligand addition. F6rster resonance energy transfer (FRET) ratios represent mean±SEM from at least three independent experiments.
(§2) All data were normalized to the baseline FRET ratio of each individual cell unless noted that absolute FRET ratio was plotted or traces were normalized to levels post-inhibitor addition. […] Every experiment contained an mCherry-transfected control to measure endogenous activity, and an mCherry-tagged WT (or deleted pseudosubstrate) PKC. Control traces are depicted as dotted lines: specifically, the endogenous trace in FIG. 1E and the deleted pseudosubstrate trace in FIGS. 2G and 31, were redrawn to serve as a point of reference in those figures (data were acquired and derived in the same experiments which generated all the data in FIGS. 1A-1E and FIGS. 2A-2G, respectively).

[3] = target: T2, PKCβII (Rattus norvegicus, UniProt P68403); assay: C kinase activity reporter (CKAR) FRET assay of cellular PKC activity; format: cell-based; conditions: for activation of WT PKCa and PKCβII (CKAR): COS7 cells, agonist treatment
T2 construct: expressed in transfected cells; host or cells: COS7
Description: as §1, §2

T2 sequence (P68403 1-673 isoform P68403-2): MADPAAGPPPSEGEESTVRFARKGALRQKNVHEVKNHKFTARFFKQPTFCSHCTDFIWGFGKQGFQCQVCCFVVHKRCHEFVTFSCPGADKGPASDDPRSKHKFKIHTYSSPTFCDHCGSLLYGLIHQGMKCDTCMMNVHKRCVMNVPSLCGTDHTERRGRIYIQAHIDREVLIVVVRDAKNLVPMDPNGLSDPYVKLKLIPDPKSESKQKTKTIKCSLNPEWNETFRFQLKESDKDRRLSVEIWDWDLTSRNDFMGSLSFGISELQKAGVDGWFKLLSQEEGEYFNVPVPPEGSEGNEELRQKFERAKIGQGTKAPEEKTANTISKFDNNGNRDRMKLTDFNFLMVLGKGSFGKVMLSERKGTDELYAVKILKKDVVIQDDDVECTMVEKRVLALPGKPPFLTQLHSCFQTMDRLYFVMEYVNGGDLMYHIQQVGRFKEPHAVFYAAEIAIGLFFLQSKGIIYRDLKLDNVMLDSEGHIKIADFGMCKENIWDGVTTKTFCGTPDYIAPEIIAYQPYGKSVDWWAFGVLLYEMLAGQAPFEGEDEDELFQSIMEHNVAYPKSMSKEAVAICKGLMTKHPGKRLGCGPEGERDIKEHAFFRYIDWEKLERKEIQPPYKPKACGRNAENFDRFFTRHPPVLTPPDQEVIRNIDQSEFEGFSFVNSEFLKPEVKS
T1 sequence (P68403 with tags, fused parts or gaps isoform P68403-2 DEL19-36): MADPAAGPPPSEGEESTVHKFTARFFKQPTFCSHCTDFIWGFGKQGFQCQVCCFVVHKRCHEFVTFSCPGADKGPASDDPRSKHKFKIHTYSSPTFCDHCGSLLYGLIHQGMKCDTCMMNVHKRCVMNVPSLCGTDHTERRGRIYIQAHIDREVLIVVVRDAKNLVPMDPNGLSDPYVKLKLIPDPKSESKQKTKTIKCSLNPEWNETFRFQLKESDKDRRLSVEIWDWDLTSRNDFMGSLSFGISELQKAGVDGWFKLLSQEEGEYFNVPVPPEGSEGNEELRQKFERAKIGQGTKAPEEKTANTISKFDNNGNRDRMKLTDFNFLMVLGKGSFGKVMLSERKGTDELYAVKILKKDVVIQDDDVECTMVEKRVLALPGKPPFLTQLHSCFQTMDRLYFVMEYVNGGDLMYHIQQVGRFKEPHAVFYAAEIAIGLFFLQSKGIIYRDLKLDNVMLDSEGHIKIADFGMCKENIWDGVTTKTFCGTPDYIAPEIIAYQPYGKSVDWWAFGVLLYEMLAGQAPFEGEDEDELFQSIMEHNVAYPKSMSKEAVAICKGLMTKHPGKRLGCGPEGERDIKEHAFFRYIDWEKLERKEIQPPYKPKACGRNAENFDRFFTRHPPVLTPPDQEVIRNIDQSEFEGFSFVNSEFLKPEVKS
WT PKCβII, sequence (P68403 1-673 isoform P68403-2): as the sequence (P68403 1-673 isoform P68403-2) above

Compound	rescue of phosphorylation at the three priming sites of pseudosubstrate-deleted PKC [1]	FRET ratio of Kinameleon reporter [2]	CKAR phosphorylation ([3]; COS7 cells expressing WT PKC or turn motif mutant (T641A), PDBu 200 nM)	activation of WT PKCa and PKCβII (CKAR) [3]
COC[C@@H]([C@H](O)[C@H](O)C(=O)NCC[C@H](C)c1nc(/C=C/C[C@@H]2O[C@]3(C[C@@H](O)[C@@H]2C)O[C@H]([C@H](C[C@H](O)[C@H](C)[C@H](O)[C@H](C)/C=C(C)/C(C)=C/C=C/C(C)=C\C#N)OC)[C@H](OP(=O)(O)O)C3(C)C)co1)N(C)C [Calyculin A]	could not be rescued	–	–	–
CCCC(=O)O[C@@H]1[C@@H](C)[C@@]2(O)[C@@H](C=C(CO)C[C@]3(O)C(=O)C(C)=C[C@@H]23)[C@@H]2C(C)(C)[C@]12OC(=O)CCC [PDBu, Phorbol 12,13-dibutyrate]	–	increase in FRET ratio	robust increase in CKAR phosphorylation	activated
O=c1ccn([C@@H]2O[C@H](COP(=O)(O)OP(=O)(O)OP(=O)(O)O)[C@@H](O)[C@H]2O)c(=O)[nH]1 [UTP, uridine triphosphate]	–	–	–	activated
